In the test the test system is HL60 cell line. The test can be described thus: Cell viability assay of HL60 cell line (CellTiter-Blue). It counts as cell-based, human. Conditions: HL60, 48 h incubation; read-out: IC50 against leukemia cell lines HL60. As to the method: HL60, K562, MV4-11 and NB4 were purchased from CLS Cell Line Service GmbH (Eppelheim, Germany). All cell lines were cultured in RPMI-1640 medium supplemented with 10% fetal bovine serum (FBS) (Thermo Fisher Scientific) and 0.1% ciprofloxacin (2.5 mg/ml; Cipla Limited; Mumbai, India), and were maintained at 37° C. in the presence of 21% O2 and 5% CO2.
Cell viability was determined using the CellTiter®-Blue Cell Viability Assay kit (Promega, Madison, Wis., USA). Approximately 10^4 cells were counted and plated in a 96-well plate in the presence of test compounds ranging from 0.01 to 10 or 20 μM in triplicate and were incubated for 48 h at 37° C. in a humidified incubator. After the incubation period was complete, 20 μL of CellTiter®-Blue Cell Viability Assay reagent was added to each well and incubated for additional 2 h for the development of florescence. Florescence was measured at Ex/Em 540/590 on SpectraMax® i3 Multi-Mode microplate reader (Molecular Devices, LLC; San Jose, Calif., USA) and plotted against drug concentration to determine the IC50 of the test compounds. The IC50 was obtained by non-linear regression model using GraphPad Prism 6.07 (GraphPad Software, Inc, USA).
For orientation: Resazurin is reduced to fluorescent resorufin, in cell work by metabolically active cells.

On to `COc1cccc(C(=O)Nc2ccc(CC(=O)NCc3ccccc3)cc2)c1` [MAK-1, N-(4-(2-(benzylamino)-2-oxoethyl)phenyl)-3-methoxybenzamide], for which the IC50 – broadly, the concentration needed to halve the response being measured – worked out at 3.27 ± 0.15 µM.

The values are drawn from patent US11479536B1 (King Abdulaziz University, priority 2022, dated 2022).
